This data set is described as follows: Plasma stability assay. In kind it is in vitro ADME, human. The method, then:
Frozen human plasma (stored at −80° C.) was thawed in a water bath followed by centrifugation at 3200×g for 5 min to remove debris. The pH value of the supernatant was then measured and adjusted to 7.4±0.1 by adding 1% phosphoric acid or 1 N sodium hydroxide.
For each test compound, 2 microL of dosing solution (50 microM for test compounds and 100 microM for positive control; propantheline bromide) were spiked into 98 microL of blank plasma to achieve a final concentration of 1 microM test compound and 2 microM positive control.
The test compounds and positive control were incubated in duplicate with human plasma (final DMSO concentration <1%) in a water bath at 37° C. at six different time points (0, 0.5, 1, 2, 4 and 6 hr). At each corresponding time point the incubations were terminated by adding appropriate volume of quenching solution to stop the reaction.
Afterwards, the plasma samples were briefly vortexed and subsequently centrifuged at 3200×g for 20 min. The supernatant was transferred into a 96-well plate and diluted with 200 microL of ultrapure water in the ratio of 1:2 prior to LC-MS/MS analysis. The peak area ratios (PAR) of analyte/internal standard was used to semi-quantitatively determine the concentration of test compounds and control compound. The percentage of test compound remaining at the individual time points relative to the 0 minute sample was reported.
In the determination of in vitro elimination constant, ke, of the parent drug and controls, the analyte/internal standard peak area ratios were converted to percentage remaining with the following equation: […]
The percentage formation of metabolite was calculated by the analyte/internal standard peak area ratios versus T0 (absolute) of metabolite drug and converted to percentage.
The half-life (T1/2) of parent drug and control compounds were calculated from a log linear plot of analyte/internal standard peak area ratios versus time (T1/2=0.693/ke).
Compounds 1a2, 1b2, 2a2, and 2b2 were incubated in human plasma as described above and half-lives of 0.5-1.5 h were determined with the formation of 15-35% of 4-((1R,3S)-6-chloro-3-phenyl-2,3-dihydro-1H-inden-1-yl)-1,2,2-trimethylpiperazine and 4-((1R,3S)-6-chloro-3-(phenyl-d5)-2,3-dihydro-1H-inden-1-yl)-2,2-dimethyl-1-(methyl-d3)piperazine, respectively.

[1] abbreviates: human plasma, pH 7.4, 37° C., 1 microM test compound, 0-6 hr, LC-MS/MS, read-out: half-life (T1/2) in human plasma.

Where two headings read alike, the source gives them in different places.

Consider `CC(C)(C)C(=O)OC[N@@+]1(C)CCN([C@@H]2C[C@@H](c3ccccc3)c3ccc(Cl)cc32)CC1(C)C.[Cl-]` (single isomer, unassigned) [Compound 1b2], for which the half-life at 1 microM (human, plasma, pH 7.4) lay within 0.5 to 1.5 h.
As to `[2H]c1c([2H])c([2H])c([C@@H]2C[C@@H](N3CC[N@+](COC(=O)C(C)(C)C)(C([2H])([2H])[2H])C(C)(C)C3)c3cc(Cl)ccc32)c([2H])c1[2H].[Cl-]` (single isomer, unassigned) [Compound 2a2], the half-life at 1 microM under setting [1] fell in the range of 0.5 to 1.5 h.
With `CC(C)(C)C(=O)OC[N@+]1(C)CCN([C@@H]2C[C@@H](c3ccccc3)c3ccc(Cl)cc32)CC1(C)C.[Cl-]` (single isomer, unassigned) [Compound 1a2], the half-life at 1 microM under setting [1] fell in the range of 0.5 to 1.5 h.
In turn, `[2H]c1c([2H])c([2H])c([C@@H]2C[C@@H](N3CC[N@@+](COC(=O)C(C)(C)C)(C([2H])([2H])[2H])C(C)(C)C3)c3cc(Cl)ccc32)c([2H])c1[2H].[Cl-]` (single isomer, unassigned) [Compound 2b2] registered a half-life at 1 microM (human, plasma, pH 7.4) of 0.5 to 1.5 h.

The values above are taken from patent US12071416B2, “Prodrugs of 4-( (1R, 3S)-6-chloro-3-phenyl-2, 3-dihydro-1H-inden-1-yl)-1,2, 2-trimethylpiperazine and 4-( (1R, 3S)-6-chloro-3-(phenyl-D5)-2, 3-dihydro-1H-inden-1-yl)-2, 2-dimethyl-1 (methyl-D3) piperazine” (H. Lundbeck A/S, priority 2018, dated 2024).
